Measured values as given in ChEMBL document CHEMBL1275576, “In vitro activity of tomopenem (CS-023/RO4908463) against anaerobic bacteria” (Antimicrob Agents Chemother, 2009).

Experiments:
Assay type in all cases: functional
Fusobacterium mortiferum = assay: Antimicrobial activity against Fusobacterium mortiferum by agar dilution method in presence of 5% laked sheep blood
Fusobacterium varium = assay: Antimicrobial activity against Fusobacterium varium by agar dilution method in presence of 5% laked sheep blood
Prevotella intermedia = assay: Antimicrobial activity against Prevotella intermedia by agar dilution method in presence of 5% laked sheep blood
Prevotella sp. = assay: Antimicrobial activity against Prevotella sp. by agar dilution method in presence of 5% laked sheep blood
Phocaeicola vulgatus = assay: Antimicrobial activity against Bacteroides vulgatus by agar dilution method in presence of 5% laked sheep blood
[1] = test system: Prevotella melaninogenica; assay: Antimicrobial activity against Prevotella melaninogenica JCM 6325 by agar dilution method in presence of 5% laked sheep blood; settings: ATCC 25845
Clostridium perfringens = assay: Antimicrobial activity against Clostridium perfringens by agar dilution method in presence of 5% laked sheep blood

Row | Compound | MIC50 (Fusobacterium mortiferum) | MIC90 (Fusobacterium mortiferum) | MIC50 (Fusobacterium varium) | MIC90 (Fusobacterium varium) | MIC50 (Prevotella intermedia) | MIC90 (Prevotella intermedia) | MIC50 (Prevotella sp.) | MIC90 (Prevotella sp.) | MIC50 (Phocaeicola vulgatus) | MIC90 (Phocaeicola vulgatus) | MIC [1] | MIC50 (Clostridium perfringens) | MIC90 (Clostridium perfringens)
1 | C[C@@H](O)[C@H]1C(=O)N2C(C(=O)O)=C(S[C@@H]3CN[C@H](CNS(N)(=O)=O)C3)[C@H](C)[C@H]12 [DORIPENEM] | 0.03 µg/mL | 0.25 µg/mL | 0.03 µg/mL | 0.25 µg/mL | 0.06 µg/mL | 0.125 µg/mL | 0.06 µg/mL | 0.125 µg/mL | 0.5 µg/mL | 4 µg/mL | 0.125 µg/mL | 0.03 µg/mL | 0.06 µg/mL
2 | Cc1ncc([N+](=O)[O-])n1CCO [METRONIDAZOLE] | ≤ 0.015 µg/mL | 0.5 µg/mL | ≤ 0.015 µg/mL | 0.5 µg/mL | 0.5 µg/mL | 0.5 µg/mL | 1 µg/mL | 2 µg/mL | 0.5 µg/mL | 1 µg/mL | 1 µg/mL | 1 µg/mL | 2 µg/mL
3 | CC(=N)N1CC[C@H](SC2=C(C(=O)O)N3C(=O)[C@H]([C@@H](C)O)[C@H]3C2)C1 | 0.125 µg/mL | 2 µg/mL | 0.125 µg/mL | 2 µg/mL | 0.06 µg/mL | 0.25 µg/mL | 0.125 µg/mL | 0.25 µg/mL | 1 µg/mL | 4 µg/mL | 0.06 µg/mL | 0.03 µg/mL | 0.06 µg/mL
4 | C[C@@H](O)[C@H]1C(=O)N2C(C(=O)O)=C(S[C@H]3C[C@@H](C(=O)N4CC[C@H](NC(=O)CNC(=N)N)C4)N(C)C3)[C@H](C)[C@H]12 [TOMOPENEM] | ≤ 0.015 µg/mL | 0.5 µg/mL | ≤ 0.015 µg/mL | 0.5 µg/mL | 0.06 µg/mL | 0.125 µg/mL | 0.125 µg/mL | 0.5 µg/mL | 0.5 µg/mL | 4 µg/mL | 0.125 µg/mL | ≤ 0.015 µg/mL | 0.06 µg/mL
5 | C[C@@H](O)[C@H]1C(=O)N2C(C(=O)O)=C(S[C@@H]3CN[C@H](C(=O)N(C)C)C3)[C@H](C)[C@H]12 [MEROPENEM] | 0.03 µg/mL | 0.125 µg/mL | 0.03 µg/mL | 0.125 µg/mL | 0.06 µg/mL | 0.125 µg/mL | 0.125 µg/mL | 0.25 µg/mL | 0.25 µg/mL | 4 µg/mL | 0.125 µg/mL | ≤ 0.015 µg/mL | 0.03 µg/mL
